Results taken from US20260022126A1, “2-(L,8-DIETHYL-1,3,4,9-TETRAHYDROPYRANO[3,4-B]INDOL-1-YL)-N-(2-(PIPERIDIN-1 YL)ETHYL)ACETAMIDE ETODOLAC DERIVATIVE AS A EUKARYOTIC ELONGATION FACTOR 2 KINASE (EEF2K) INHIBITOR FOR TARGETED CANCER THERAPY” (BAHCESEHIR UNIVERSITESI, priority 2023, published 2026).

Assays:
eEF2K [1] = target: T1, eEF2K (Homo sapiens, UniProt O00418); experiment: Western blot of p-EF2 (Thr56) for eEF2K inhibition in MDA-MB-231 cells; format: cell-based; details: for eEF2K inhibition potential: MDA-MB-231 (TNBC) cells, 2.5 to 20 micromolar
T1 sequence (O00418 1-725): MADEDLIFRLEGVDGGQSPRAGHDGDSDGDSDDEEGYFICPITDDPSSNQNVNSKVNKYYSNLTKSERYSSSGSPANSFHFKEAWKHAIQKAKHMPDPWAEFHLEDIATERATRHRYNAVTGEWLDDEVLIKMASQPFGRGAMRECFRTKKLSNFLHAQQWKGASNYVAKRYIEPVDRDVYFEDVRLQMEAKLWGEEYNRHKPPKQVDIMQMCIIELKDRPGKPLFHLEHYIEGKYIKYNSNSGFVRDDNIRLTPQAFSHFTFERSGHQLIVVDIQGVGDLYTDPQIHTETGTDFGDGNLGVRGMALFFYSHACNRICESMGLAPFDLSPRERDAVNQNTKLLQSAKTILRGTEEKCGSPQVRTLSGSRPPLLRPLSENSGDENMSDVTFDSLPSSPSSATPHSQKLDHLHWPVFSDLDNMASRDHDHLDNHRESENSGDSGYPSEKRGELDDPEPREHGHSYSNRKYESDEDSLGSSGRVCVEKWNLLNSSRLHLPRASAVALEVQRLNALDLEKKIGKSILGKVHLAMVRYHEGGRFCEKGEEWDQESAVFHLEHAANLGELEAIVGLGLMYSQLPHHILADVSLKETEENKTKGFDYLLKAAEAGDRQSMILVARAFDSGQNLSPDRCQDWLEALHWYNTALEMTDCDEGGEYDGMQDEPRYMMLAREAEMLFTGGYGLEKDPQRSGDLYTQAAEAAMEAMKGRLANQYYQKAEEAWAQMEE
Experimental: MeOH: distilled water by volume (%) (70:30) was used as the mobile phase for HPLC analysis for the inventive compound and the flow rate was set to 1 mL min^-1. Triple negative breast cancer (TNBC) cell lines (ER-, PR- and HER2-) MDA-MB-231 cells were purchased from the American Type Culture Collection (ATCC) (Manassas, VA, USA). MDA-MB-231 cells were cultured in Dulbecco's modified Eagle's medium (DMEM)/F12 supplemented with 10% FBS (Fetal Bovine Serum) and 100 U mL^-1 penicillin and streptomycin. Specific antibodies (p-EF2 (Thr56) (2331S), eEF2 (2332S), eEF2K (3692S) and GAPDH (5174S)) were purchased from Cell Signaling Technology (CST).
Western blot analysis was carried out according to previously reported studies to evaluate the eEF2K inhibition activity for the synthesized compounds. The synthesized compound was applied to MDA-MB-231 cells in the range of various concentrations from 2.5 to 20 micromolar for 2 h treatment. The expression levels of p-EF2 (Thr56) inhibition and eEF2K activity were determined by using related antibodies such as p-EF2 (Thr56), eEF2 and eEF2K. Glyceraldehyde 3-phosphate dehydrogenase (GAPDH) was used as a loading control.
To determine the effects of the synthesized compounds in inhibiting eEF2K activity in TNBC, MDA-MB-231 cells, we performed western blot analysis at concentrations ranging from 2.5 micromolar to 20 micromolar in a dose-dependent manner. eEF2K inhibition was detected by decreased phosphorylation levels of EF2 (p-EF2-Thr-56), a direct downstream substrate of the enzyme.

eEF2K [2] = target: T1, eEF2K; details: literature, cited from earlier work
other protein kinases = details: literature; cited from earlier work
cancer cells = details: literature; very high doses; cited from earlier work

Row | Compound | eEF2K inhibition potential (eEF2K [1]; western blot) | eEF2K inhibition (in words) (eEF2K [2]) | Activity against other kinases (specificity) (other protein kinases) | also measured
1 | CCc1cccc2c3c([nH]c12)C(CC)(CC(=O)NCCN1CCCCC1)OCC3 (stereo not shown) [Inventive compound, 2-(1,8-Diethyl-1,3,4,9-tetrahydropyrano[3,4-b]indol-1-yl)-N-(2-(piperidin-1-yl)ethyl)acetamide] | high inhibition potential |  |  | phospho-eEF2 (Thr56) inhibition (eEF2K [1]; MDA-MB-231 cells, 2.5 and 5 micromolar, 2 h treatment): highest phospho-eEF2 (Thr56) inhibition; eEF2K inhibition (reduced levels of p-EF2) (eEF2K [1]; MDA-MB-231 cells, 2.5 micromolar, compared to etodolac (EC), western blot): marked inhibition of eEF2K
2 | Cc1cc(C=C2C(=O)C=CC2=O)cc(C)c1O [TX1918] |  | did not show significant eEF2K inhibition | inhibitory activity against five different kinases | Concentration reported to inhibit eEF2K (eEF2K [2]; concentrations as high as): 10 µM
3 | CCn1c(=O)c2cc(C(N)=O)c(N)nc2n(C2CC2)c1=O [A484954] |  |  |  | Dose showing inhibition effect in cancer cells (cancer cells): 75 µM
4 | CC(=O)c1c(O)c(C)c(O)c(Cc2c(O)c3c(c(C(=O)/C=C/c4ccccc4)c2O)OC(C)(C)C=C3)c1O [rottlerin] |  |  | inhibits various other protein kinases at concentrations lower than those required for inhibition of eEF2K | 
5 | CCc1cccc2c3c([nH]c12)C(CC)(CC(=O)O)OCC3 (racemic) [Etodolac, (R,S)-2-[1,8-diethyl-1,3,4-tetrahydropyrano[3,4-b]indol-1-yl] acetic acid] | did not show any inhibition potential |  |  | 
6 | CCCCCCCCCCCCCCCCn1cc[n+](Cc2ccccc2)c1C.[I-] [NH125] |  | does not inhibit EF2K but rather increases eEF2 phosphorylation |  | 
